Data on ten compounds can be found in ChEMBL document CHEMBL1201862, “PubChem BioAssay data set” (2004).

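Assay format: 96-well plates, 48-hour exposure. The concentration for 50% growth inhibition is given as GI50.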 Active and inactive are the calls of the source. Cut-off read from the data, not from the text of the source: active = GI50 up to about 1.1 µM and inactive = higher.

Among the test systems are Hs-578T; UACC-62; UO-31; MOLT-4; NCI-H460; HOP-62; MDA-MB-231; MCF7; OVCAR-3; HCT-15; CAKI-1; SF-268; NCI-H23; U-251; NCI-H226; SK-OV-3; HT-29; SW-620; HCT-116.
Assay in all cases: growth of human tumour cells (NCI), 48 h

For `C[C@]12CCC(=O)C=C1CC[C@@H]1[C@@H]2[C@@H](O)C[C@@]2(C)[C@H]1CC[C@]2(O)C(=O)CO` [HYDROCORTISONE], the GI50 with Hs-578T, with UACC-62, in the assay with UO-31, in the assay with MOLT-4, in the assay on NCI-H460 and with HOP-62 was > 100 µM (inactive) each time. For the same compound, the GI50 with MDA-MB-231 is > 100 µM (inactive); in the assay with MCF7, > 100 µM (inactive); in the assay on OVCAR-3 it was > 100 µM (inactive); in the assay with HCT-15, more than 100 µM; with CAKI-1, > 100 µM (inactive); in the assay with SF-268 it was > 100 µM (inactive). Moreover, the GI50 with NCI-H23, with U-251, with NCI-H226, in the assay on SK-OV-3, with HT-29 and in the assay with SW-620 was > 100 µM (inactive) in each case. The GI50 with HCT-116 was > 100 µM (inactive).

Consider `COc1ccc(NC(=O)C2=C(SC)C(C#N)C(=O)N=C2N)cc1` (stereo not given), for which the GI50 with Hs-578T is 89.1 µM (inactive); in the assay with UACC-62, > 100 µM (inactive); with UO-31 it was 72.1 µM (inactive); in the assay on MOLT-4 it was 55.3 µM (inactive); with NCI-H460, > 100 µM (inactive); in the assay with HOP-62, > 100 µM (inactive). For the same compound, the GI50 was > 100 µM (inactive) in the assay on MDA-MB-231; > 100 µM (inactive) in the assay with MCF7; > 100 µM (inactive) with OVCAR-3; more than 100 µM with HCT-15; 46.3 µM (inactive) in the assay on CAKI-1; > 100 µM (inactive) in the assay with SF-268. For the same compound, the GI50 is > 100 µM (inactive) in the assay with NCI-H23; > 100 µM (inactive) in the assay with U-251; > 100 µM (inactive) in the assay with NCI-H226; > 100 µM (inactive) with SK-OV-3; > 100 µM (inactive) with HT-29; 67.1 µM (inactive) in the assay with SW-620. Further, in the assay on HCT-116, the GI50 was > 100 µM (inactive).

As for `c1ccc2oc(-c3ccc(-c4nc5ccccc5o4)c4c3CC4)nc2c1`, the GI50 in the assay on Hs-578T, in the assay with UACC-62, in the assay with UO-31, with MOLT-4, in the assay on NCI-H460 and in the assay with HOP-62 was > 100 µM (inactive) throughout. The GI50 with MDA-MB-231 is > 100 µM (inactive); with MCF7, > 100 µM (inactive); with OVCAR-3, > 100 µM (inactive); in the assay on HCT-15, more than 100 µM; with CAKI-1, > 100 µM (inactive); with SF-268, > 100 µM (inactive). For the same compound, the GI50 with NCI-H23, in the assay on U-251, in the assay on NCI-H226, in the assay on SK-OV-3, with HT-29 and with SW-620 was > 100 µM (inactive) throughout. Also, the GI50 with HCT-116 was > 100 µM (inactive).

As to `OC1COC(n2c3ccc(Br)cc3c3ccc4c5ccccc5[nH]c4c32)C(O)C1O` (stereo not given), the GI50 with Hs-578T is 3.18 µM (inactive); in the assay on UACC-62 it was 0.643 µM (active); in the assay with UO-31, 2.82 µM (inactive); in the assay on MOLT-4, 3.05 µM (inactive); in the assay with NCI-H460, 2.58 µM (inactive); in the assay with HOP-62, 3.64 µM (inactive). In addition, the GI50 in the assay with MDA-MB-231 is 2.14 µM (inactive); in the assay with MCF7 it was 2.99 µM (inactive); in the assay on OVCAR-3 it was 3.37 µM (inactive); in the assay on HCT-15, 3.37 µM; in the assay on CAKI-1, 3.13 µM (inactive); in the assay with SF-268 it was 3.84 µM (inactive). In addition, the GI50 was 3.02 µM (inactive) in the assay with NCI-H23; 5.01 µM (inactive) in the assay on U-251; 6.76 µM (inactive) with NCI-H226; 0.832 µM (active) with SK-OV-3; 3.15 µM (inactive) in the assay on HT-29; 0.644 µM (active) in the assay on SW-620. For the same compound, the GI50 in the assay on HCT-116 was 3.55 µM (inactive).

Consider `CC[C@@H]1CC[C@@H]2[C@H](CC[C@]3(C)[C@@H](O)CC[C@@H]23)[C@H]1C(=O)O`, for which the GI50 in the assay with Hs-578T, in the assay on UACC-62, with UO-31, with MOLT-4, with NCI-H460 and in the assay on HOP-62 was > 100 µM (inactive) throughout. Also, the GI50 was > 100 µM (inactive) in the assay on MDA-MB-231; > 100 µM (inactive) with MCF7; > 100 µM (inactive) with OVCAR-3; more than 100 µM in the assay on HCT-15; > 100 µM (inactive) in the assay with CAKI-1; > 100 µM (inactive) in the assay with SF-268. Besides, the GI50 in the assay with NCI-H23, with U-251, in the assay on NCI-H226, with SK-OV-3, with HT-29 and in the assay with SW-620 was > 100 µM (inactive) each time. For the same compound, in the assay with HCT-116, the GI50 was > 100 µM (inactive).

For the compound `CC12CC(=O)Nc3ccccc3N1C(c1ccccc1)=NO2` (stereo not given), the GI50 in the assay with Hs-578T, with UACC-62, in the assay on UO-31, in the assay with MOLT-4, with NCI-H460 and with HOP-62 was > 100 µM (inactive) throughout. Besides, the GI50 was > 100 µM (inactive) with MDA-MB-231; > 100 µM (inactive) with MCF7; > 100 µM (inactive) with OVCAR-3; more than 100 µM with HCT-15; > 100 µM (inactive) in the assay on CAKI-1; > 100 µM (inactive) in the assay on SF-268. The GI50 in the assay with NCI-H23, with U-251, with NCI-H226, with SK-OV-3, in the assay on HT-29 and in the assay on SW-620 was > 100 µM (inactive) in each case. Moreover, the GI50 with HCT-116 is > 100 µM (inactive).

As for `C[C@]12CC[C@@H]3c4cc(OCC(F)(F)F)c(O)cc4CC[C@H]3[C@@H]1CC[C@@H]2O`, the GI50 with Hs-578T was 2.83 µM (inactive); in the assay with UACC-62 it was 2.32 µM (inactive); with UO-31, 8.65 µM (inactive); with MOLT-4 it was 1 µM (active); in the assay with NCI-H460, 1.44 µM (inactive); in the assay on HOP-62, 11.6 µM (inactive). For the same compound, the GI50 in the assay with MDA-MB-231 is 0.536 µM (active); in the assay on MCF7 it was 2.36 µM (inactive); with OVCAR-3, 0.459 µM (active); with HCT-15 it was 0.762 µM; in the assay on CAKI-1, 2.74 µM (inactive); in the assay on SF-268 it was 9.29 µM (inactive). Besides, the GI50 with NCI-H23 was 4.75 µM (inactive); in the assay with U-251, 2.22 µM (inactive); in the assay with NCI-H226, 7.05 µM (inactive); in the assay with SK-OV-3 it was 1.69 µM (inactive); with HT-29, 4.06 µM (inactive); in the assay on SW-620, 1.05 µM (active). For the same compound, in the assay on HCT-116, the GI50 was 1.9 µM (inactive).

In the case of `CC(C)(C)NC(NC(C)(C)C)=C(C(Cl)=C(Cl)Cl)[N+](=O)[O-]`, the GI50 is 29.4 µM (inactive) with Hs-578T; > 100 µM (inactive) in the assay on UACC-62; 42.7 µM (inactive) in the assay with UO-31; > 100 µM (inactive) in the assay with MOLT-4; > 100 µM (inactive) in the assay with NCI-H460; > 100 µM (inactive) in the assay with HOP-62. Besides, the GI50 in the assay with MDA-MB-231 is > 100 µM (inactive); with MCF7, > 100 µM (inactive); with OVCAR-3 it was > 100 µM (inactive); in the assay with HCT-15, more than 100 µM; in the assay on CAKI-1, > 100 µM (inactive); in the assay on SF-268, > 100 µM (inactive). The GI50 in the assay on NCI-H23, in the assay on U-251, in the assay with NCI-H226, with SK-OV-3, in the assay on HT-29 and with SW-620 was > 100 µM (inactive) each time. For the same compound, the GI50 with HCT-116 is > 100 µM (inactive).

As to `COc1ccc2c(c1)N(C(C)=O)CN1C(=O)CCC21` (stereo not given), the GI50 is > 100 µM (inactive) with Hs-578T; > 100 µM (inactive) in the assay with UACC-62; > 100 µM (inactive) with UO-31; 46 µM (inactive) in the assay on MOLT-4; > 100 µM (inactive) in the assay with NCI-H460; > 100 µM (inactive) in the assay with HOP-62. Besides, the GI50 in the assay with MDA-MB-231 is > 100 µM (inactive); in the assay with MCF7 it was > 100 µM (inactive); with OVCAR-3, > 100 µM (inactive); in the assay on HCT-15, more than 100 µM; with CAKI-1, > 100 µM (inactive); in the assay on SF-268, > 100 µM (inactive). Further, the GI50 in the assay with NCI-H23, with U-251, in the assay with NCI-H226, in the assay on SK-OV-3, in the assay with HT-29 and in the assay with SW-620 was > 100 µM (inactive) in each case. Besides, the GI50 with HCT-116 is > 100 µM (inactive).

Turning to `CCCCCCCC(=O)OC[n+]1ccc(-c2c(COC(=O)NC(C)C)c(COC(=O)NC(C)C)c3n2CCC3)cc1`, the GI50 was 52.6 µM (inactive) in the assay on Hs-578T; 13.8 µM (inactive) with UACC-62; 42.4 µM (inactive) in the assay on UO-31; 13.3 µM (inactive) with MOLT-4; 21.4 µM (inactive) with NCI-H460; 56.6 µM (inactive) in the assay on HOP-62. Further, the GI50 in the assay on MDA-MB-231 is 48.8 µM (inactive); in the assay on MCF7 it was 30.2 µM (inactive); in the assay with OVCAR-3, > 62.7 µM (inactive); in the assay with HCT-15, 52.4 µM; in the assay with CAKI-1, 18.6 µM (inactive); in the assay with SF-268, 25.8 µM (inactive). For the same compound, the GI50 in the assay on NCI-H23 is 35.2 µM (inactive); with U-251, 51.5 µM (inactive); in the assay with NCI-H226, > 78.5 µM (inactive); in the assay with SK-OV-3 it was 63.1 µM (inactive); with HT-29, 42.6 µM (inactive); with SW-620, 23.2 µM (inactive). For the same compound, in the assay on HCT-116, the GI50 was 25.5 µM (inactive).
